Converted amounts (≈) assume the structure as drawn. Marks after values point to notes of the source that are not given here.
Assays:
[1] = male rat, 0.5 hours after single oral administration; cited from earlier work
S. aureus ATCC29213 = assay: Frequency of development of resistant bacteria; type: cell-based, Staphylococcus aureus; details: for FREQUENCY OF DEVELOPMENT OF RESISTANT BACTERIA (AVERAGE OF TWO MEASURED VALUES): about 70 hours
Method: (§1) S. aureus ATCC29213 is Staphylococcus aureus, S. pneumoniae ATCC49619 is Streptococcus pneumoniae, and E. coli ATCC25922 is Escherichia coli. […]
(§2) The frequency of development of resistant bacteria was calculated by dividing the number of colonies developed on an agar medium having each drug concentration by the number of initially inoculated bacteria.

S. pneumoniae ATCC49619 = assay: Frequency of development of resistant bacteria; type: cell-based, Streptococcus pneumoniae; details: for FREQUENCY OF DEVELOPMENT OF RESISTANT BACTERIA (AVERAGE OF TWO MEASURED VALUES): about 70 hours
Method: as §1, §2

E. coli ATCC25922 [2] = assay: Frequency of development of resistant bacteria; type: cell-based, Escherichia coli; details: for FREQUENCY OF DEVELOPMENT OF RESISTANT BACTERIA (AVERAGE OF TWO MEASURED VALUES): about 70 hours
Method: as §1, §2

E. coli ATCC25922 [3] = assay: microbe, parasite or virus in culture; type: cell-based; details: Escherichia coli

| SMILES | tissue distribution ratio into the lung tissue [1] | development of resistant bacteria (in words) (S. aureus ATCC29213; S. aureus ATCC29213, 4 to 16 × MIC) | FREQUENCY OF DEVELOPMENT OF RESISTANT BACTERIA (AVERAGE OF TWO MEASURED VALUES) (S. aureus ATCC29213; S. aureus ATCC29213, 4 × MIC) | FREQUENCY OF DEVELOPMENT OF RESISTANT BACTERIA (AVERAGE OF TWO MEASURED VALUES) (S. aureus ATCC29213; S. aureus ATCC29213, 8 × MIC) | FREQUENCY OF DEVELOPMENT OF RESISTANT BACTERIA (AVERAGE OF TWO MEASURED VALUES) (S. aureus ATCC29213; S. aureus ATCC29213, 16 × MIC) | development of resistant bacteria (in words) (S. pneumoniae ATCC49619; S. pneumoniae ATCC49619, 4 to 16 × MIC) | FREQUENCY OF DEVELOPMENT OF RESISTANT BACTERIA (AVERAGE OF TWO MEASURED VALUES) (S. pneumoniae ATCC49619; S. pneumoniae ATCC49619, 4 × MIC) | FREQUENCY OF DEVELOPMENT OF RESISTANT BACTERIA (AVERAGE OF TWO MEASURED VALUES) (S. pneumoniae ATCC49619; S. pneumoniae ATCC49619, 8 × MIC) | FREQUENCY OF DEVELOPMENT OF RESISTANT BACTERIA (AVERAGE OF TWO MEASURED VALUES) (S. pneumoniae ATCC49619; S. pneumoniae ATCC49619, 16 × MIC) | development of resistant bacteria (in words) (E. coli ATCC25922 [2]; E. coli ATCC25922, 4 to 16 × MIC) | FREQUENCY OF DEVELOPMENT OF RESISTANT BACTERIA (AVERAGE OF TWO MEASURED VALUES) (E. coli ATCC25922 [2]; E. coli ATCC25922, 4 × MIC) | FREQUENCY OF DEVELOPMENT OF RESISTANT BACTERIA (AVERAGE OF TWO MEASURED VALUES) (E. coli ATCC25922 [2]; E. coli ATCC25922, 8 × MIC) | FREQUENCY OF DEVELOPMENT OF RESISTANT BACTERIA (AVERAGE OF TWO MEASURED VALUES) (E. coli ATCC25922 [2]; E. coli ATCC25922, 16 × MIC) | MIC (E. coli ATCC25922 [3]) [ng/mL] |
| --- | --- | --- | --- | --- | --- | --- | --- | --- | --- | --- | --- | --- | --- | --- |
| N[C@@H]1CN(c2c(F)cc3c(=O)c(C(=O)O)cn([C@@H]4C[C@@H]4F)c3c2Cl)CC12CC2 [sitafloxacin] | 2.7 | – | – | – | – | – | – | – | – | – | – | – | – | – |
| O=C(O)c1cn(C2CC2)c2cc(N3CCNCC3)c(F)cc2c1=O [CPFX, ciprofloxacin] | – | developed | 6.2 × 10^−9* | 3.1 × 10^−9* | <2.1 × 10^−9 | developed | 1.1 × 10^−8* | <1.1 × 10^−8 | <1.1 × 10^−8 | developed | 1.2 × 10^−8* | <1.9 × 10^−9 | <1.9 × 10^−9 | 8 (≈ 0.0241 µM) |

From patent US20180042918A1, “RESPIRATORY INFECTION TREATING AGENT” (KYORIN PHARMACEUTICAL CO., LTD., priority 2015, published 2018)
